Drawing on patent US20240043405A1, “POTENT AND SELECTIVE IRREVERSIBLE INHIBITORS OF IRAK1” (Dana-Farber Cancer Institute, Inc., priority 2020, published 2024), this text covers IC50 for 20 compounds.

The target of assay [1] is IRAK1 (Homo sapiens (Human), UniProt P51617). The experiment in a line: Adapta Universal Kinase Assay (ThermoFisher) against IRAK1. The format is biochemical. The following applies: IRAK1/Histone H3 (1-20) peptide, 60 minutes at room temperature. How it is done:
To measure the IC50 values of the compounds herein against IRAK1, the Adapta Universal Kinase Assay (ThermoFisher) was used. Briefly, 100 nL of different concentrations of the compounds in 100% DMSO were added to each well of a 384-well plate (Corning Cat. #4512). 2.4 μL of 30 mM HEPES, 2.5 μL of 4×ATP solution (in water), and 5 μL of 2× IRAK1/Histone H3 (1-20) peptide mixture (prepared in 50 mM HEPES pH 7.5, 0.01% BRIJ-35, 10 mM MgCl2, 1 mM EGTA) were added to each well. The plate was shaken for 30 seconds and centrifuged for 1 minute at 1000×g. The plate was then incubated at room temperature for 60 minutes. 5 μL of Detection Mix was added to each well. The plate was shaken for 30 seconds and centrifuged for 1 minute at 1000×g. The plate was then incubated at room temperature for 60 minutes. The plate was subsequently read on a fluorescence plate reader, and the emissions ratio was calculated to determine the ratio of ATP to ADP. Emissions Ratio=AF647 Emission (665 nm)/Europium Emission (615 nm).

Assay [2] has as its target IRAK4 (Homo sapiens (Human), UniProt Q9NWZ3). As to the kind of experiment: Z'-LYTE assay (ThermoFisher) against IRAK4. The format is biochemical. To be noted: IRAK4/Ser/Thr 07, 60 minutes at room temperature. As for the experimental part: To measure the 050 values of compounds herein against IRAK4, a Z′-LYTE assay (ThermoFisher) was used. Briefly, 2.5 μL. of different concentrations of the compounds in 1% DMSO were added to 2.4 μL kinase buffer (50 mM HEPES pH 7.5, 0.01% BRIJ-35, 10 mM MgCl2, 1 mM EGTA) in each well of a 384-well plate (Corning Cat. #3676). 5 μL of 2×IRAK4/Ser/Thr 07 mixture (prepared in 50 mM HEPES pH 7.5, 0.01% BRIJ-35, 10 mM MnCl2, 2 mM OTT, and 0.02% NaN3) and 2.5 μL of 4×ATP solution (4×ATP, 50 mM HEPES, pH 7.5, 0.01% BRIJ-35, 10 mM MgCl2, 1 mM EGTA) were added to each well. The plate was shaken for 30 seconds, and then incubated at room temperature for 60 minutes. 5 μL of a 1:100000 dilution of Development Reagent A was added to each well. The plate was shaken for 30 seconds and incubated for 60 minutes at room temperature. The plate was subsequently read on a fluorescence plate reader, and the emissions ratio was calculated to determine the ratio of Ser/Thr 07 phosphorylated by the reaction. Emissions Ratio=Coumarin Emission (443 nm)/Flourescein Emission (520 nm).

Sequence of IRAK4 (Q9NWZ3 whole entry): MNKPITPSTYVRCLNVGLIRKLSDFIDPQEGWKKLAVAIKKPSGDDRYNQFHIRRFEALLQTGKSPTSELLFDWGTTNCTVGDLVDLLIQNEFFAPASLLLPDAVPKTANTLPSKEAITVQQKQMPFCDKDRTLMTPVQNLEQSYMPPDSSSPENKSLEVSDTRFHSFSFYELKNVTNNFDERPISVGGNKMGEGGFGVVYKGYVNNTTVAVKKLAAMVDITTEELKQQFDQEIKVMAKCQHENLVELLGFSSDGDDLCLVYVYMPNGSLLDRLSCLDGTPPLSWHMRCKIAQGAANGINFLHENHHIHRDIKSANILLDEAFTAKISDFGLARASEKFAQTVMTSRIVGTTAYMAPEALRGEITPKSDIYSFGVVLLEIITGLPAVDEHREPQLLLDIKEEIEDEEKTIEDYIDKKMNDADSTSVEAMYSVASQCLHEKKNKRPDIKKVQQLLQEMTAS
Sequence of IRAK1 (P51617 whole entry): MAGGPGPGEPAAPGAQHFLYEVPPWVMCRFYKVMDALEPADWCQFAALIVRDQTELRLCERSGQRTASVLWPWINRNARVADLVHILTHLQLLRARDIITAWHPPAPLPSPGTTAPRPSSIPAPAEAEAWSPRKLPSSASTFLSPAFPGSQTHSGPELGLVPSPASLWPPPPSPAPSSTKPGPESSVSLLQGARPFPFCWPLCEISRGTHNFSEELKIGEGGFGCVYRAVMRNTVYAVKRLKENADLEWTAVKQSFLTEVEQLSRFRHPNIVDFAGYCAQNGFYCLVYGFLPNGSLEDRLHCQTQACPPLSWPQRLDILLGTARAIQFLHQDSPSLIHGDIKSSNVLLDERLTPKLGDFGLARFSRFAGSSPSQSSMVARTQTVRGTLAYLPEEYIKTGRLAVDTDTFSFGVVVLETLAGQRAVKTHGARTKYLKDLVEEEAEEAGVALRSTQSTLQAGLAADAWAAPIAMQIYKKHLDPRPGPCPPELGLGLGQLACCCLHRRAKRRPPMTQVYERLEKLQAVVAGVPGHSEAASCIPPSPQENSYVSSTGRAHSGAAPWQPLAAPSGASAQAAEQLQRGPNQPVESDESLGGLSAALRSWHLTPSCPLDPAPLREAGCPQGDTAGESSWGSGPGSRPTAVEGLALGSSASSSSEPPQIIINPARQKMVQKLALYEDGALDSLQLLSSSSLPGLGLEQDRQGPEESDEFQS

On to `C=CC(=O)N[C@@H]1CCCC(C(=O)Nc2ccc(NC(=O)c3cccc(-c4ccn[nH]4)n3)cc2F)C1` (stereo partly shown) [Compound 001], for which the IC50 was 129 nM in assay [1] and greater than 10000 nM in assay [2].
For `C=CC(=O)N[C@@H]1CCC[C@H](C(=O)Nc2ccc(NC(=O)c3cccc(-c4ccn[nH]4)n3)nc2)C1` [Compound 002, N-(5-((1S,3R)-3-acrylamidocyclohexane-1-carboxamido)pyridin-2-yl)-6-(1H-pyrazol-5-yl)-picolinamide] the same measures were 257 nM and greater than 10000 nM.
Consider `C=CC(=O)N[C@@H]1CCCC(C(=O)Nc2ccc(NC(=O)c3cccc(-c4ccn[nH]4)n3)cc2C)C1` (stereo partly shown) [Compound 003], for which the figures for the IC50 in assay [1] and in assay [2] were 671 nM and greater than 10000 nM, respectively.
For `C=CC(=O)N[C@H]1CCCC(C(=O)Nc2ccc(NC(=O)c3cccc(-c4ccn[nH]4)n3)nc2)C1` (stereo partly shown) [Compound 005], the IC50 in assay [1] is 189 nM; in assay [2], greater than 10000 nM.
On the same counts, the results for `C=CC(=O)N[C@@H]1CNC[C@H](C(=O)Nc2ccc(NC(=O)c3cccc(-c4ccn[nH]4)n3)nc2)C1` [Compound 006, N-(5-((3R,5S)-5-acrylamidopiperidine-3-carboxamido)pyridin-2-yl)-6-(1H-pyrazol-5-yl)-picolinamide] are 14 nM and 4000 nM.
Consider `C=CC(=O)N[C@@H]1CNCC(C(=O)Nc2ccc(NC(=O)c3cccc(-c4ccn[nH]4)n3)cc2F)C1` (stereo partly shown) [Compound 007], for which the figures for the half-inhibitory concentration (IC50) in assay [1] and in assay [2] were 150 nM and greater than 10000 nM, respectively.
As for `C=CC(=O)N[C@H]1C[C@@H](C(=O)Nc2ccc(NC(=O)c3cccc(-c4ccn[nH]4)n3)nc2)CN(C)C1` [Compound 013, N-(5-((3R,5S)-5-acrylamido-1-methylpiperidine-3-carboxamido)pyridin-2-yl)-6-(1H-pyrazol-5-yl)picolinamide], the IC50 in assay [1] is 18.5 nM; in assay [2], greater than 10000 nM.
On the same counts, the results for `C=CC(=O)NC12CC(C(=O)Nc3ccc(NC(=O)c4cccc(-c5ccn[nH]5)n4)cc3F)(C1)C2` [Compound 016] are 301 nM and 9930 nM.
For the compound `C=CC(=O)N1CC2(CC(n3cc(-c4ccc(NC(=O)c5cccc(-c6cnoc6)n5)nc4)nn3)C2)C1` [Compound 024, N-(5-(1-(2-acryloyl-2-azaspiro[3,3]heptan-6-yl)-1H-1,2,3-triazol-4-yl)pyridin-2-yl)-6-(isoxazol-4-yl)picolinamide], the IC50 stood at 612 nM in assay [1] and 3330 nM in assay [2].
With `C=CC(=O)N[C@@H]1CCC[C@H](C(=O)Nc2ccc(NC(=O)c3cccc(-c4ccn[nH]4)n3)cc2)C1` [Compound 026, N-(4-((1 S,3R)-3-acrylamidocyclohexane-1-carboxamido)phenyl)-6-(1H-pyrazol-5-yl)-picolinamide], the IC50 in assay [1] is 68.1 nM; in assay [2] it was greater than 10000 nM.
With `C=CC(=O)N1CCC[C@H](C(=O)Nc2ccc(NC(=O)c3cccc(-c4ccn[nH]4)n3)nc2)C1` [Compound 027, (S)-N-(5-(1-acryloylpiperidine-3-carboxamido)pyridin-2-yl)-6-(1H-pyrazol-5-yl)picolinamide], the IC50 in assay [1] is 6.37 nM; in assay [2] it was 1870 nM.
On the same counts, the results for `C=CC(=O)N1CCC[C@@H](C(=O)Nc2ccc(NC(=O)c3cccc(-c4ccn[nH]4)n3)nc2)C1` [Compound 028, (R)-N-(5-(1-acryloylpiperidine-3-carboxamido)pyridin-2-yl)-6-(1H-pyrazol-5-yl)picolinamide] are 12.5 nM and 722 nM.
With `C=CC(=O)N1CCC[C@H](C(=O)Nc2ccc(NC(=O)c3cccc(-c4cnoc4)n3)nc2)C1` [Compound 029, (S)-N-(5-(1-acryloylpiperidine-3-carboxamido)pyridin-2-yl)-6-(isoxazol-4-yl)picolinamide], the half-inhibitory concentration (IC50) in assay [1] was 658 nM; in assay [2], greater than 10000 nM.
As to `C=CC(=O)N1CCC[C@@H](C(=O)Nc2ccc(NC(=O)c3cccc(-c4cnoc4)n3)nc2)C1` [Compound 030, (R)-N-(5-(1-acryloylpiperidine-3-carboxamido)pyridin-2-yl)-6-(isoxazol-4-yl)picolinamide], the half-inhibitory concentration (IC50) in assay [1] was 399 nM; in assay [2] it was 3330 nM.
For `C=CC(=O)N1CCC[C@H](C(=O)Nc2ccc(NC(=O)c3cccc(-c4ccn[nH]4)n3)cc2F)C1` [Compound 031, (S)-N-(4-(1-acryloylpiperidine-3-carboxamido)-3-fluorophenyl)-6-(1H-pyrazol-5-yl)picolinamide] the same measures were 40.1 nM and 1110 nM.
For `C=CC(=O)N1CCC[C@H](C(=O)Nc2ccc(NC(=O)c3cccc(-c4cnoc4)n3)cc2F)C1` [Compound 032, (S)-N-(4-(1-acryloylpiperidine-3-carboxamido)-3-fluorophenyl)-6-(isoxazol-4-yl)picolinamide] the same measures were 1190 nM and greater than 10000 nM.
Regarding `C=CC(=O)N1CCC[C@@H](C(=O)Nc2ccc(NC(=O)c3cccc(-c4ccn[nH]4)n3)cc2F)C1` [Compound 033, (R)-N-(4-(1 acryloylpiperidine-3-carboxamido)-3-fluorophenyl)-6-(1H-pyrazol-5-yl)picolinamide], the values for the IC50 in assay [1] and in assay [2] were 74.2 nM and 2510 nM, respectively.
On the same counts, the results for `C=CC(=O)N1CCC[C@@H](C(=O)Nc2ccc(NC(=O)c3cccc(-c4cnoc4)n3)cc2F)C1` [Compound 034, (R)-N-(4-(1-acryloylpiperidine-3-carboxamido)-3-fluorophenyl)66-(isoxazol-4-yl)picolinamide] are 344 nM and 2010 nM.
For `C=CC(=O)N[C@H]1C[C@@H](C(=O)Nc2ccc(NC(=O)c3cccc(-c4ccn[nH]4)n3)nc2)CN(CC(F)(F)F)C1` [Compound 038, N-(5-((3R,5S)-5-acrylamido-1-(2,2,2-trifluoroethyl)piperidine-3-carboxamido)pyridin-2-yl)-6-(1H-pyrazol-5-yl)picolinamide] the same measures were 12.1 nM and greater than 10000 nM.
On the same counts, the results for `C=CC(=O)N[C@H]1C[C@@H](C(=O)Nc2ccc(NC(=O)c3cccc(-c4ccn[nH]4)n3)nc2)CN(CC(F)F)C1` [Compound 039, N-(5-((3R,5S)-5-acrylamido-1-(2,2-difluorethyl)piperidine-3-carboxamido)pyridin-2-yl)-6-(1H-pyrazol-5-yl)picolinamide] are 14.9 nM and greater than 10000 nM.
